In patent US9750817B2, “Amphotericin B derivatives” (priority 2015, dated 2017):
Values joined by “and” are separate entries in the source; they are usually repeats but may differ in a detail not shown here. Equal entries are not always repeated.

Key:
C. albicans = experiment: Fungal burden in kidneys of infected mice; assay type: in vivo; conditions: AMB 1 mg/kg; Compound 6 1.75, 3.5 and 7 mg/kg
Protocol: Reference is made to FIGS. 6A-E. ICR female mice were inoculated with C. albicans in groups of 3 as described in example 6B and were killed 48 hours later for assessment of fungal burden. One kidney and the spleen were removed aseptically from each animal and homogenized in 1 mL of sterile normal saline. Serial 10-fold dilutions of the homogenates were spread on YAG plates, and colony-forming units (CFU)/organ was determined from the colony count after 24 hours incubation at 37° C. All mouse experiments were performed in duplicates.
At necropsy, fungal burden in mouse tissues was evaluated. […] FIGS. 6C-E show micrographs of mice treated with Compound 6 at dosages of 1.75 mg/kg, 3.5 mg/kg and 7 mg/kg, respectively.

A. fumigatus (Af 293) = experiment: MIC of compound 6, AMB and FMOC-6; assay type: cell-based, Aspergillus fumigatus
Protocol: Efficacy was evaluated by measuring minimum inhibitory concentration (MIC) and minimum fungicidal concentration (MFC) values for fungal isolates. Testing of isolates was performed according to the Clinical & Laboratory Standards Institute (CLSI) method. (CLSI. 2008. M27-A3 Reference method for broth dilution antifungal susceptibility testing of yeasts; Approved Standard—3rd edition. Clinical and Laboratory Standards Institute, Wayne). RPMI MOPS media was used throughout the experiment as growth and dilution media. Spores and yeast cells were harvested in 0.05% Tween from 24-48 h and cultures were grown in rich yeast extract-agar-glucose (YAG) medium (composed of: 0.5% w/v yeast extract, 1% w/v glucose, 10 millimolar (mM) MgCl2, supplemented with 0.1% v/v trace elements solution, and 0.2% v/v vitamin mix). The spores and the yeast cells were counted and diluted to a final concentration of 2.5×10^4 per ml. A stock solution of 5 mg/ml was prepared in dimethylsulfoxide for free AMB. Compounds 4 and 6 were prepared in sterile saline. Double dilutions of each drug were performed in 100 μL volume of RPMI-MOPS in 96 well plates beginning with a final concentration of 32 micrograms (μg)/well of each drug to 0.06 μg/well. 2500 spores or yeast cells were added to each well. Results were recorded 48 h post incubation at 37° C. […] The MFC was defined as the lowest drug concentration that yielded three or fewer colonies (i.e. 99% of the inoculum was killed).
In addition, the amine protected equivalent of compound 6 in which the amine of compound 6 was protected with an FMOC group was tested (designated FMOC-6) to determine MIC versus AMB and versus compound 6 against A. fumigatus (Af 293) and C. albicans (CBS562).

[1] = Pharmacokinetics upon single intravenous administration; assay type: in vivo, mice; design: ke: unit not given here; conditions: mouse serum, IV bolus; AMB 1 mg/kg, Compound 6 5 mg/kg
Protocol: AMB and Compound 6 solution in saline were administrated intravenously (IV) to groups of mice at a dose of 1 and 5 mg/kg body weight, respectively. The mice received an IV bolus via the tail vein. Mice were bled over a 48 h period at the following time points: 0, 5, 15 and 30 minutes and 1, 2, 6, 12, 24 and 48 h post-dosing (3 mice per time point). Bleeding was conducted using a facial vein technique into sterile Eppendorf tubes. Whole blood samples of 150 μl were collected at each time point, stored for 30 min at room temperature for clotting and centrifuged at 10,000 RPM for 10 minutes until serum separated. The serum samples were stored at −20° C.
The concentration of Compound 6 in the serum was measured by HPLC as follows: UltiMate® 3000 system (Dionex) was used equipped with 3000 pump, VWD-3000 UV-Vis detector and Chromeleon® 6.80 software. The column used was LiChroCART® 250×4.6 mm Purospher® STAR (5 μm) C-18 RP (reverse phase). Chromatographic conditions: flow: 1.0 ml/min, linear water (buffer A)/acetonitrile (ACN) (buffer B) gradient (buffer A—100% water, 0.1% TFA; buffer B—100% ACN, 0.1% TFA).
200 μl of methanol was added to 100 μl of serum sample and vortexed for 20 seconds, stored for 30 min at room temperature (22° C.), then centrifuged at 14,000 RPM for 10 minutes. The supernatant was filtered through a 0.22 μm filter and aliquots of 100 μl were analyzed by HPLC. AMB and Compound 6 were detected at a wavelength of 407 nm.
The pharmacokinetic graphs depicting drug concentration over time are shown in FIGS. 8A-8B (over 24 hours and 120 minutes respectively) and the calculated PK values are shown in Table 6 below.

C. albicans CBS 562 = experiment: Experimental systemic murine candidiasis, survival; assay type: in vivo, mice; conditions: four daily injections, 24 days
Protocol: Reference is Made to FIG. 5. Efficacy of PAD-AMB was Tested on Naïve 6 Week Old female ICR mice (n=20). Experimental systemic murine candidiasis was induced by intravenous inoculation of C. albicans CBS 562 into the tail vein using an inoculum of 5×10^4 cells in 0.2 ml per mouse. Fungal count was determined by microscopic counts on a haemocytometer. Treatment began 24 h after inoculation of C. albicans and consisted of four consecutive daily injections of Compound 6 at a range of 1.75-8.75 mg/kg/day relative to mouse body weight. Control groups included infected untreated mice and mice treated with AMB (1 mg/kg/day body weight). Survival and mouse body weight were monitored for 24 days. Survival for the various mouse groups is shown graphically in FIG. 5.

[2] = Stability (hydrolysis) in phosphate buffered saline; assay type: physicochemical
[3] = Solubility in 0.9% saline after vortex, sonication and centrifuge; assay type: physicochemical

SMILES	fungal hyphae in kidney sections (Fontana-Masson silver staining) (C. albicans)	MIC (A. fumigatus (Af 293)) [µg/mL]	AUC0-24 [1] [µg·h/mL]	CL [1] [mL/h]	MRT0-24 [1] [h]	Vd [1] [L]	t1/2 [1]	mice rescued (survival) (C. albicans CBS 562; 1 mg/kg/day)	hydrolysis after 4 hours ([2]; 4 hours)	level of hydrolysis after 24 hours ([2]; 24 hours) [%]	increased solubility relative to corresponding non-PEG-conjugated AMB compounds [3]	ke [1]	mice rescued (survival) (C. albicans CBS 562; 3.5 mg/kg)	mice rescued (survival) (C. albicans CBS 562; 7 mg/kg)
C[C@@H]1[C@H](O)[C@@H](C)/C=C/C=C/C=C/C=C/C=C/C=C/C=C/[C@H](O[C@@H]2O[C@H](C)[C@@H](O)[C@H](N)[C@@H]2O)C[C@@H]2O[C@](O)(C[C@@H](O)C[C@@H](O)[C@H](O)CC[C@@H](O)C[C@@H](O)CC(=O)O[C@H]1C)C[C@H](O)[C@H]2C(=O)O [AMB, Amphotericin B]	barely detectable	0.5	63.983	0.250	9.664	0.006	15.96 h and 15.964 h	10 of the 12	–	–	–	–	–	–
COC(=O)C1C(O)CC2(O)CC(O)CC(O)C(O)CCC(O)CC(O)CC(=O)OC(C)C(C)C(O)C(C)C=CC=CC=CC=CC=CC=CC=CC(OC3OC(C)C(O)C(NC(=O)CCOCCOCCOCCOCCOCCOCCOCCOCCN)C3O)CC1O2 (stereo not drawn) [Compound 6, amphotericin B amide, methyl ester-PEG(8)-amine]	barely detectable	2	421.234	0.508	5.431	0.002	3.153 h	–	no hydrolysis could be observed	0.8	greater than 700 fold	0.220	the same level of efficacy	rescued all of the mice
